# In US20060134102A1, “Lymphotoxin beta receptor agents in combination with chemotherapeutic agents” (Biogen Idec MA Inc., priority 2002, published 2006):
# Tested on: KM-20L2 human colorectal adenocarcinoma
# Assay: KM-20L2 xenograft model: growth of established KM-20L2 human colorectal tumors in athymic nude mice (tumor volume/weight, % T/C, Fa, Combination Index)
# Assay type: in vivo
substance,measurement,setting,value
"huCBE11: humanized anti-LT-β-R agonist antibody (LTβ receptor-activating mAb), described in WO 02/30986",Median Effect Dose,"Combined (1:0.63 huCBE11:Camptosar), dose of the labelled agent in the combination, Day 13",10.7 mg/kg
same,Median Effect Dose,"Combined (1:0.63 huCBE11:Camptosar), dose of the labelled agent in the combination, Day 16",2.6 mg/kg
same,Median Effect Dose,"Combined (1:0.63 huCBE11:Camptosar), dose of the labelled agent in the combination, Day 20",1.0 mg/kg
same,Median Effect Dose,"Combined (1:0.63 huCBE11:Camptosar), dose of the labelled agent in the combination, Day 23",1.1 mg/kg
same,Median Effect Dose,"Combined (1:0.63 huCBE11:Camptosar), dose of the labelled agent in the combination, Day 27",1.5 mg/kg
same,Median Effect Dose,"Combined (1:0.63 huCBE11:Camptosar), dose of the labelled agent in the combination, Day 30",1.8 mg/kg
same,Median Effect Dose,"Combined (1:0.63 huCBE11:Camptosar), dose of the labelled agent in the combination, Day 34",1.8 mg/kg
same,Median Effect Dose,"Combined (1:0.63 huCBE11:Camptosar), dose of the labelled agent in the combination, Day 37",1.6 mg/kg
same,Median Effect Dose,"Combined (1:0.63 huCBE11:Camptosar), dose of the labelled agent in the combination, Day 41",1.5 mg/kg
same,Median Effect Dose,"Given Separately, Day 13",174 mg/kg
same,Median Effect Dose,"Given Separately, Day 16",981 mg/kg
same,Median Effect Dose,"Given Separately, Day 20",32.7 mg/kg
same,Median Effect Dose,"Given Separately, Day 23",9.0 mg/kg
same,Median Effect Dose,"Given Separately, Day 27",2.1 mg/kg
same,Median Effect Dose,"Given Separately, Day 30",3.8 mg/kg
same,Median Effect Dose,"Given Separately, Day 34",3.6 mg/kg
same,Median Effect Dose,"Given Separately, Day 37",6.6 mg/kg
same,Median Effect Dose,"Given Separately, Day 41",3.0 mg/kg
same,Median Effect Dose,Given Separately; Day 16,2077 mg/kg
same,Median Effect Dose,Given Separately; Day 20,9.5 mg/kg
same,Median Effect Dose,Given Separately; Day 23,4.8 mg/kg
same,Median Effect Dose,Given Separately; Day 27,3.3 mg/kg
same,Median Effect Dose,Given Separately; Day 30,3.8 mg/kg
same,Median Effect Dose,Given Separately; Day 34,3.2 mg/kg
same,Median Effect Dose,Given Separately; Day 37,2.7 mg/kg
same,Median Effect Dose,Given Separately; Day 41,2.4 mg/kg
same,Median Effect Dose,Given Separately; Day 43,2.4 mg/kg
same,Median Effect Dose,dose of the labelled agent when huCBE11 and Gemcitabine Combined (4:5); Day 16,3.6 mg/kg
same,Median Effect Dose,dose of the labelled agent when huCBE11 and Gemcitabine Combined (4:5); Day 20,1.3 mg/kg
same,Median Effect Dose,dose of the labelled agent when huCBE11 and Gemcitabine Combined (4:5); Day 23,0.6 mg/kg
same,Median Effect Dose,dose of the labelled agent when huCBE11 and Gemcitabine Combined (4:5); Day 27,0.7 mg/kg
same,Median Effect Dose,dose of the labelled agent when huCBE11 and Gemcitabine Combined (4:5); Day 30,0.6 mg/kg
same,Median Effect Dose,dose of the labelled agent when huCBE11 and Gemcitabine Combined (4:5); Day 34,0.6 mg/kg
same,Median Effect Dose,dose of the labelled agent when huCBE11 and Gemcitabine Combined (4:5); Day 37,0.4 mg/kg
same,Median Effect Dose,dose of the labelled agent when huCBE11 and Gemcitabine Combined (4:5); Day 41,0.6 mg/kg
same,Median Effect Dose,dose of the labelled agent when huCBE11 and Gemcitabine Combined (4:5); Day 43,0.4 mg/kg
same,% T/C,hCBE11 2 mg/kg; Days 41 to 55,≤ 42%
same,% T/C,hCBE11 4 mg/kg; Days 50 and 55,≤ 42%
same,Mean Fraction Affected (Fa),"huCBE11 0.2 mg/kg alone, Day 9",−0.026
same,Mean Fraction Affected (Fa),"huCBE11 0.2 mg/kg alone, Day 13",0.003
same,Mean Fraction Affected (Fa),"huCBE11 0.2 mg/kg alone, Day 16",0.125
same,Mean Fraction Affected (Fa),"huCBE11 0.2 mg/kg alone, Day 20",0.249
same,Mean Fraction Affected (Fa),"huCBE11 0.2 mg/kg alone, Day 23",0.294
same,Mean Fraction Affected (Fa),"huCBE11 0.2 mg/kg alone, Day 27",0.377
same,Mean Fraction Affected (Fa),"huCBE11 0.2 mg/kg alone, Day 30",0.369
same,Mean Fraction Affected (Fa),"huCBE11 0.2 mg/kg alone, Day 34",0.345
same,Mean Fraction Affected (Fa),"huCBE11 0.2 mg/kg alone, Day 37",0.372
same,Mean Fraction Affected (Fa),"huCBE11 0.2 mg/kg alone, Day 41",0.381
same,Mean Fraction Affected (Fa),huCBE11 0.2 mg/kg; Day 9,0.063
same,Mean Fraction Affected/Fraction Unaffected (Fa/Fu),huCBE11 0.2 mg/kg; Day 9,0.067
same,Mean Tumor Volume,huCBE11 0.2 mg/kg; Day 9,104.8 cubic mm
same,Mean Tumor Volume Decrease,huCBE11 0.2 mg/kg; Day 9,7.0 cubic mm
same,Mean Fraction Affected (Fa),huCBE11 0.2 mg/kg; Day 13,0.071
same,Mean Fraction Affected/Fraction Unaffected (Fa/Fu),huCBE11 0.2 mg/kg; Day 13,0.076
same,Mean Tumor Volume,huCBE11 0.2 mg/kg; Day 13,160.4 cubic mm
same,Mean Tumor Volume Decrease,huCBE11 0.2 mg/kg; Day 13,12.2 cubic mm
same,Mean Fraction Affected (Fa),huCBE11 0.2 mg/kg; Day 16,0.055
same,Mean Fraction Affected/Fraction Unaffected (Fa/Fu),huCBE11 0.2 mg/kg; Day 16,0.058
same,Mean Tumor Volume,huCBE11 0.2 mg/kg; Day 16,250.5 cubic mm
same,Mean Tumor Volume Decrease,huCBE11 0.2 mg/kg; Day 16,14.5 cubic mm
same,Mean Fraction Affected (Fa),huCBE11 0.2 mg/kg; Day 20,0.073
same,Mean Fraction Affected/Fraction Unaffected (Fa/Fu),huCBE11 0.2 mg/kg; Day 20,0.078
same,Mean Tumor Volume,huCBE11 0.2 mg/kg; Day 20,371.9 cubic mm
same,Mean Tumor Volume Decrease,huCBE11 0.2 mg/kg; Day 20,29.1 cubic mm
same,Mean Fraction Affected (Fa),huCBE11 0.2 mg/kg; Day 23,0.016
same,Mean Fraction Affected/Fraction Unaffected (Fa/Fu),huCBE11 0.2 mg/kg; Day 23,0.016
same,Mean Tumor Volume,huCBE11 0.2 mg/kg; Day 23,518.7 cubic mm
same,Mean Tumor Volume Decrease,huCBE11 0.2 mg/kg; Day 23,8.5 cubic mm
same,Mean Fraction Affected/Fraction Unaffected (Fa/Fu),huCBE11 0.2 mg/kg; Day 27,−0.008
same,Mean Tumor Volume,huCBE11 0.2 mg/kg; Day 27,673.8 cubic mm
same,Mean Tumor Volume Decrease,huCBE11 0.2 mg/kg; Day 27,−5.2 cubic mm
same,Mean Fraction Affected (Fa),huCBE11 0.2 mg/kg; Day 30,0.030
same,Mean Fraction Affected/Fraction Unaffected (Fa/Fu),huCBE11 0.2 mg/kg; Day 30,0.030
same,Mean Tumor Volume,huCBE11 0.2 mg/kg; Day 30,792.1 cubic mm
same,Mean Tumor Volume Decrease,huCBE11 0.2 mg/kg; Day 30,24.1 cubic mm
same,Mean Fraction Affected (Fa),huCBE11 0.2 mg/kg; Day 34,0.118
same,Mean Fraction Affected/Fraction Unaffected (Fa/Fu),huCBE11 0.2 mg/kg; Day 34,0.134
same,Mean Tumor Volume,huCBE11 0.2 mg/kg; Day 34,926.4 cubic mm
same,Mean Tumor Volume Decrease,huCBE11 0.2 mg/kg; Day 34,123.9 cubic mm
same,Mean Fraction Affected (Fa),huCBE11 0.2 mg/kg; Day 37,0.132
same,Mean Fraction Affected/Fraction Unaffected (Fa/Fu),huCBE11 0.2 mg/kg; Day 37,0.152
same,Mean Tumor Volume,huCBE11 0.2 mg/kg; Day 37,1048.5 cubic mm
same,Mean Tumor Volume Decrease,huCBE11 0.2 mg/kg; Day 37,159.5 cubic mm
same,Mean Fraction Affected (Fa),huCBE11 0.2 mg/kg; Day 41,0.120
same,Mean Fraction Affected/Fraction Unaffected (Fa/Fu),huCBE11 0.2 mg/kg; Day 41,0.137
same,Mean Tumor Volume,huCBE11 0.2 mg/kg; Day 41,1266.0 cubic mm
same,Mean Tumor Volume Decrease,huCBE11 0.2 mg/kg; Day 41,173.4 cubic mm
same,Mean Fraction Affected (Fa),huCBE11 0.2 mg/kg; Day 43,0.096
same,Mean Fraction Affected/Fraction Unaffected (Fa/Fu),huCBE11 0.2 mg/kg; Day 43,0.107
same,Mean Tumor Volume,huCBE11 0.2 mg/kg; Day 43,1452.0 cubic mm
same,Mean Tumor Volume Decrease,huCBE11 0.2 mg/kg; Day 43,154.7 cubic mm
same,Mean Fraction Affected (Fa),"huCBE11 2 mg/kg alone, Day 9",0.101
same,Mean Fraction Affected (Fa),"huCBE11 2 mg/kg alone, Day 13",0.137
same,Mean Fraction Affected (Fa),"huCBE11 2 mg/kg alone, Day 16",0.322
same,Mean Fraction Affected (Fa),"huCBE11 2 mg/kg alone, Day 20",0.458
same,Mean Fraction Affected (Fa),"huCBE11 2 mg/kg alone, Day 23",0.497
same,Mean Fraction Affected (Fa),"huCBE11 2 mg/kg alone, Day 27",0.542
same,Mean Fraction Affected (Fa),"huCBE11 2 mg/kg alone, Day 30",0.524
same,Mean Fraction Affected (Fa),"huCBE11 2 mg/kg alone, Day 34",0.541
same,Mean Fraction Affected (Fa),"huCBE11 2 mg/kg alone, Day 37",0.485
same,Mean Fraction Affected (Fa),"huCBE11 2 mg/kg alone, Day 41",0.541
same,"% T/C, lowest observed",huCBE11 2 mg/kg and 4 mg/kg; dose ranging study,> 42%
